Test results as given in publication PMC11873566 (Acta Pharmaceutica Sinica. B, 2024).

Molecular target: alpha-enolase (ENO1) (Homo sapiens, UniProt P06733)
Assay: MST with NT-647-NHS labelled recombinant ENO1
Assay type: binding

Chain of alpha-enolase (ENO1) (P06733 2-434): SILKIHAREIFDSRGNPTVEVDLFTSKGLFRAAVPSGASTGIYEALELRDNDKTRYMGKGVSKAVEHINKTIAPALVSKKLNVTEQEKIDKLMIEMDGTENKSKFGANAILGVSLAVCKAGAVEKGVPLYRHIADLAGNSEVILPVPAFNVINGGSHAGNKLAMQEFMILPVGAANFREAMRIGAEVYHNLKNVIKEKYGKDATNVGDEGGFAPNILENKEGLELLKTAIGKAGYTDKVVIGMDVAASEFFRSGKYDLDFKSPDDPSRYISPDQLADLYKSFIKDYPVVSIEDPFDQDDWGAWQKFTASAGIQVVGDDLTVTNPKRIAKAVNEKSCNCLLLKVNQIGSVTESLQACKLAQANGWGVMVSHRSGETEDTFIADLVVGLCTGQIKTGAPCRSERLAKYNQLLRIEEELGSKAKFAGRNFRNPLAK

Kd: 15 µM
SMILES: O=c1cc(-c2ccccc2)oc2cc(O)cc(O)c12 [compound 1, chrysin]
